According to patent publication US20090018111A1, “Novel Antimicrobial Medicament” (priority 2004, published 2009):
Read-outs that look alike come from different tables or passages of the source.

How the values were obtained:
S. maltophilia IID1275 = assay: Sensitivity test (agar dilution); assay type: cell-based, Stenotrophomonas maltophilia; conditions: Stenotrophomonas maltophilia, S. maltophilia IID1275
In short: (§1)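 Standard Japanese agar dilution method. Drugs alone or combined were serially halved in Mueller Hinton agar, inoculated with overnight (37° C) cultures at about 10^6 CFU/ml. Values are MICs.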

[1] = system: S. aureus MS94088 (hetero-MRSA); assay: Sensitivity test (agar dilution); assay type: cell-based, Staphylococcus aureus; conditions: Staphylococcus aureus, MRSA, S. aureus MS94088 (hetero-MRSA)
In short: as §1

S. aureus 209P = assay: Sensitivity test (agar dilution); assay type: cell-based, Staphylococcus aureus; conditions: Staphylococcus aureus, 209P, S. aureus 209P
In short: as §1

E. aerogenes ATCC13048 = assay: Sensitivity test (agar dilution); assay type: cell-based, Enterobacter aerogenes; conditions: Klebsiella aerogenes, E. aerogenes ATCC13048
In short: as §1

B. subtilis ATCC6633 = assay: Sensitivity test (agar dilution); assay type: cell-based, Bacillus subtilis; conditions: Bacillus subtilis, B. subtilis ATCC6633
In short: as §1

M. catarrhalis ATCC25238 = assay: Sensitivity test (agar dilution); assay type: cell-based, Moraxella catarrhalis; conditions: Moraxella catarrhalis, M. catarrhalis ATCC25238
In short: as §1

M. catarrhalis ATCC8176 = assay: Sensitivity test (agar dilution); assay type: cell-based, Moraxella catarrhalis; conditions: Moraxella catarrhalis, M. catarrhalis ATCC8176
In short: as §1

S. marcescens GN6473 = assay: Sensitivity test (agar dilution); assay type: cell-based, Serratia marcescens; conditions: Serratia marcescens, S. marcescens GN6473
In short: as §1

S. marcescens X 100 = assay: Sensitivity test (agar dilution); assay type: cell-based, Serratia marcescens; conditions: Serratia marcescens, S. marcescens X 100
In short: as §1

P. mirabiris GN2425 = assay: Sensitivity test (agar dilution); assay type: cell-based, Proteus mirabilis; conditions: Proteus mirabilis, P. mirabiris GN2425
In short: as §1

E. faecium ATCC19434 = assay: Sensitivity test (agar dilution); assay type: cell-based, Enterococcus faecium; conditions: Enterococcus faecium, E. faecium ATCC19434
In short: as §1

E. coli ML1410 RP4 = assay: microbe, parasite or virus in culture; assay type: cell-based, Escherichia coli; conditions: Escherichia coli, E. coli ML1410 RP4
In short: as §1

C. freundii GN346 = assay: Sensitivity test (agar dilution); assay type: cell-based, Citrobacter freundii; conditions: Citrobacter freundii, C. freundii GN346
In short: as §1

[2] = IID1275, drug alone, read-out: MIC alone
[3] = Concomitant (DRPM:SM = 1:1), read-out: MIC concomitant
[4] = drug alone, read-out: MIC alone
[5] = ATCC13048, drug alone, read-out: MIC alone
[6] = ATCC6633, drug alone, read-out: MIC alone
[7] = ATCC25238, drug alone, read-out: MIC alone
[8] = ATCC8176, drug alone, read-out: MIC alone
[9] = GN6473, drug alone, read-out: MIC alone
[10] = X100, drug alone, read-out: MIC alone
[11] = GN2425, drug alone, read-out: MIC alone
[12] = ATCC19434, drug alone, read-out: MIC alone
[13] = ML1410RP4, read-out: MIC alone, drug alone
[14] = GN346, drug alone, read-out: MIC alone
[15] = Concomitant (CAZ:SM = 1:1), read-out: MIC concomitant
[16] = Concomitant (PIPC:SM = 1:1), read-out: MIC concomitant

C[C@@H](O)[C@H]1C(=O)N2C(C(=O)O)=C(S[C@@H]3CN[C@H](CNS(N)(=O)=O)C3)[C@H](C)[C@H]12 [DRPM, doripenem]
MIC (S. maltophilia IID1275; IID1275, Concomitant (DRPM:SM = 1:1), read-out: MIC concomitant): > 32 µg/mL
MIC (S. maltophilia IID1275; [2]): > 32 µg/mL
MIC [1, 3]: 0.25 µg/mL
MIC [1, 4]: 2 µg/mL
MIC (S. aureus 209P; [3]): 0.004 µg/mL
MIC (S. aureus 209P; [4]): 0.016 µg/mL
MIC (E. aerogenes ATCC13048; ATCC13048, Concomitant (DRPM:SM = 1:1), read-out: MIC concomitant): 0.031 µg/mL
MIC (E. aerogenes ATCC13048; [5]): 0.031 µg/mL
MIC (B. subtilis ATCC6633; ATCC6633, Concomitant (DRPM:SM = 1:1), read-out: MIC concomitant): ≤ 0.002 µg/mL
MIC (B. subtilis ATCC6633; [6]): 0.008 µg/mL
MIC (M. catarrhalis ATCC25238; ATCC25238, Concomitant (DRPM:SM = 1:1), read-out: MIC concomitant): ≤ 0.002 µg/mL
MIC (M. catarrhalis ATCC25238; [7]): 0.004 µg/mL
MIC (M. catarrhalis ATCC8176; ATCC8176, Concomitant (DRPM:SM = 1:1), read-out: MIC concomitant): ≤ 0.002 µg/mL
MIC (M. catarrhalis ATCC8176; [8]): 0.008 µg/mL
MIC (S. marcescens GN6473; GN6473, Concomitant (DRPM:SM = 1:1), read-out: MIC concomitant): 0.063 µg/mL
MIC (S. marcescens GN6473; [9]): 0.063 µg/mL
MIC (S. marcescens X 100; X100, Concomitant (DRPM:SM = 1:1), read-out: MIC concomitant): 0.031 µg/mL
MIC (S. marcescens X 100; [10]): 0.031 µg/mL
MIC (P. mirabiris GN2425; GN2425, Concomitant (DRPM:SM = 1:1), read-out: MIC concomitant): 0.063 µg/mL
MIC (P. mirabiris GN2425; [11]): 0.063 µg/mL
MIC (E. faecium ATCC19434; ATCC19434, Concomitant (DRPM:SM = 1:1), read-out: MIC concomitant): 0.25 µg/mL
MIC (E. faecium ATCC19434; [12]): 8 µg/mL
MIC (E. coli ML1410 RP4; [13]): 0.031 µg/mL
MIC (E. coli ML1410 RP4; ML1410RP4, read-out: MIC concomitant, Concomitant (DRPM:SM = 1:1)): 0.031 µg/mL
MIC (C. freundii GN346; GN346, Concomitant (DRPM:SM = 1:1), read-out: MIC concomitant): 0.063 µg/mL
MIC (C. freundii GN346; [14]): 0.063 µg/mL

CC(C)(O/N=C(\C(=O)N[C@@H]1C(=O)N2C(C(=O)[O-])=C(C[n+]3ccccc3)CS[C@H]12)c1csc(N)n1)C(=O)O [CAZ, ceftazidime]
MIC (S. maltophilia IID1275; IID1275, Concomitant (CAZ:SM = 1:1), read-out: MIC concomitant): > 32 µg/mL
MIC (S. maltophilia IID1275; [2]): > 32 µg/mL
MIC [1, 15]: 0.25 µg/mL
MIC [1, 4]: > 32 µg/mL
MIC (S. aureus 209P; [15]): 0.004 µg/mL
MIC (S. aureus 209P; [4]): 8 µg/mL
MIC (E. aerogenes ATCC13048; ATCC13048, Concomitant (CAZ:SM = 1:1), read-out: MIC concomitant): 8 µg/mL
MIC (E. aerogenes ATCC13048; [5]): 0.5 µg/mL
MIC (B. subtilis ATCC6633; ATCC6633, Concomitant (CAZ:SM = 1:1), read-out: MIC concomitant): ≤ 0.002 µg/mL
MIC (B. subtilis ATCC6633; [6]): 2 µg/mL
MIC (M. catarrhalis ATCC25238; ATCC25238, Concomitant (CAZ:SM = 1:1), read-out: MIC concomitant): ≤ 0.002 µg/mL
MIC (M. catarrhalis ATCC25238; [7]): 0.016 µg/mL
MIC (M. catarrhalis ATCC8176; ATCC8176, Concomitant (CAZ:SM = 1:1), read-out: MIC concomitant): ≤ 0.002 µg/mL
MIC (M. catarrhalis ATCC8176; [8]): 0.016 µg/mL
MIC (S. marcescens GN6473; GN6473, Concomitant (CAZ:SM = 1:1), read-out: MIC concomitant): 0.5 µg/mL
MIC (S. marcescens GN6473; [9]): 0.5 µg/mL
MIC (S. marcescens X 100; X100, Concomitant (CAZ:SM = 1:1), read-out: MIC concomitant): 0.125 µg/mL
MIC (S. marcescens X 100; [10]): 0.25 µg/mL
MIC (P. mirabiris GN2425; GN2425, Concomitant (CAZ:SM = 1:1), read-out: MIC concomitant): 0.031 µg/mL
MIC (P. mirabiris GN2425; [11]): 0.063 µg/mL
MIC (E. faecium ATCC19434; ATCC19434, Concomitant (CAZ:SM = 1:1), read-out: MIC concomitant): 0.125 µg/mL
MIC (E. faecium ATCC19434; [12]): > 32 µg/mL
MIC (E. coli ML1410 RP4; [13]): 0.5 µg/mL
MIC (E. coli ML1410 RP4; ML1410RP4, read-out: MIC concomitant, Concomitant (CAZ:SM = 1:1)): 0.125 µg/mL
MIC (C. freundii GN346; GN346, Concomitant (CAZ:SM = 1:1), read-out: MIC concomitant): 8 µg/mL
MIC (C. freundii GN346; [14]): 1 µg/mL

CCN1CCN(C(=O)N[C@@H](C(=O)N[C@@H]2C(=O)N3[C@@H]2SC(C)(C)[C@@H]3C(=O)O)c2ccccc2)C(=O)C1=O [PIPC, piperacillin]
MIC (S. maltophilia IID1275; IID1275, Concomitant (PIPC:SM = 1:1), read-out: MIC concomitant): > 32 µg/mL
MIC (S. maltophilia IID1275; [2]): > 32 µg/mL
MIC [1, 16]: 0.125 µg/mL
MIC [1, 4]: > 32 µg/mL
MIC (S. aureus 209P; [16]): 0.004 µg/mL
MIC (S. aureus 209P; [4]): 0.25 µg/mL
MIC (E. aerogenes ATCC13048; ATCC13048, Concomitant (PIPC:SM = 1:1), read-out: MIC concomitant): 8 µg/mL
MIC (E. aerogenes ATCC13048; [5]): 4 µg/mL
MIC (B. subtilis ATCC6633; ATCC6633, Concomitant (PIPC:SM = 1:1), read-out: MIC concomitant): ≤ 0.002 µg/mL
MIC (B. subtilis ATCC6633; [6]): 0.125 µg/mL
MIC (M. catarrhalis ATCC25238; ATCC25238, Concomitant (PIPC:SM = 1:1), read-out: MIC concomitant): ≤ 0.002 µg/mL
MIC (M. catarrhalis ATCC25238; [7]): 0.008 µg/mL
MIC (M. catarrhalis ATCC8176; ATCC8176, Concomitant (PIPC:SM = 1:1), read-out: MIC concomitant): ≤ 0.002 µg/mL
MIC (M. catarrhalis ATCC8176; [8]): 0.016 µg/mL
MIC (S. marcescens GN6473; GN6473, Concomitant (PIPC:SM = 1:1), read-out: MIC concomitant): 4 µg/mL
MIC (S. marcescens GN6473; [9]): > 32 µg/mL
MIC (S. marcescens X 100; X100, Concomitant (PIPC:SM = 1:1), read-out: MIC concomitant): 0.25 µg/mL
MIC (S. marcescens X 100; [10]): 0.5 µg/mL
MIC (P. mirabiris GN2425; GN2425, read-out: MIC alone, drug alone): 0.25 µg/mL
MIC (P. mirabiris GN2425; GN2425, read-out: MIC concomitant, Concomitant (PIPC:SM = 1:1)): 0.063 µg/mL
MIC (E. faecium ATCC19434; ATCC19434, Concomitant (PIPC:SM = 1:1), read-out: MIC concomitant): 0.125 µg/mL
MIC (E. faecium ATCC19434; [12]): 8 µg/mL
MIC (E. coli ML1410 RP4; [13]): > 32 µg/mL
MIC (E. coli ML1410 RP4; ML1410RP4, read-out: MIC concomitant, Concomitant (PIPC:SM = 1:1)): 0.5 µg/mL
MIC (C. freundii GN346; GN346, Concomitant (PIPC:SM = 1:1), read-out: MIC concomitant): 8 µg/mL
MIC (C. freundii GN346; [14]): 1 µg/mL
